Measured values from the supplement of paper PMC10307832.

Columns and labels:
Experiment in all cases: relative viability (nuclei count vs DMSO), 5 days (fraction); higher = more cells survive
GSK-J4 + Olaparib = compound: CCOC(=O)CCNc1cc(N2CCc3ccccc3CC2)nc(-c2ccccn2)n1 [GSK-J4] + O=C(c1cc(Cc2n[nH]c(=O)c3ccccc23)ccc1F)N1CCN(C(=O)C2CC2)CC1 [Olaparib] (partner 8 µM)
How it was run: (§1)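 Lung cancer cell lines in 1536-well plates got either a single drug or a fixed anchor-drug dose together with five library-drug doses (not always all listed) in √10 steps, by pin tool, on the day after seeding. Nuclei were counted after 5 days, and relative viability is the treated-to-vehicle ratio of nuclei counts. Values are medians of duplicate plates.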

GSK-J4 + Pemetrexed = compound: CCOC(=O)CCNc1cc(N2CCc3ccccc3CC2)nc(-c2ccccn2)n1 [GSK-J4] + Nc1nc2[nH]cc(CCc3ccc(C(=O)N[C@@H](CCC(=O)O)C(=O)O)cc3)c2c(=O)[nH]1 [Pemetrexed] (partner 0.2 µM)
How it was run: as §1

AZ3146 + Vorinostat = compound: CN1CCC(CC1)OC2=CC(=C(C=C2)NC3=NC=C4C(=N3)N(C(=O)N4C)C5CCCC5)OC [AZ3146] + O=C(CCCCCCC(=O)Nc1ccccc1)NO [Vorinostat] (partner 1 µM)
How it was run: as §1

AZ3146 + Pictilisib = compound: CN1CCC(CC1)OC2=CC(=C(C=C2)NC3=NC=C4C(=N3)N(C(=O)N4C)C5CCCC5)OC [AZ3146] + CS(=O)(=O)N1CCN(Cc2cc3nc(-c4cccc5[nH]ncc45)nc(N4CCOCC4)c3s2)CC1 [Pictilisib] (partner 1 µM)
How it was run: as §1

For HCC-366, the relative viability (GSK-J4 + Olaparib; first compound 0.5 µM) was 0.362, the relative viability (GSK-J4 + Olaparib; first compound 1.581 µM) was 0.308 and the relative viability (GSK-J4 + Olaparib; first compound 15.81 µM) was 0.37. For the same cell line, the relative viability (GSK-J4 + Olaparib; first compound 50 µM) was 0.285, the relative viability (GSK-J4 + Pemetrexed; first compound 0.5 µM) was 0.148 and the relative viability (GSK-J4 + Pemetrexed; first compound 1.581 µM) was 0.145. For the same cell line, the relative viability (GSK-J4 + Pemetrexed; first compound 15.81 µM) was 0.229, the relative viability (GSK-J4 + Pemetrexed; first compound 50 µM) was 0.169 and the relative viability (AZ3146 + Vorinostat; first compound 0.08 µM) was 0.192. It also gave a relative viability (AZ3146 + Vorinostat; first compound 0.253 µM) of 0.408, a relative viability (AZ3146 + Vorinostat; first compound 0.8 µM) of 0.352 and a relative viability (AZ3146 + Vorinostat; first compound 2.53 µM) of 0.278. For the same cell line, the relative viability (AZ3146 + Vorinostat; first compound 8 µM) was 0.14, the relative viability (AZ3146 + Pictilisib; first compound 0.08 µM) was 0.233 and the relative viability (AZ3146 + Pictilisib; first compound 0.253 µM) was 0.133. For the same cell line, the relative viability (AZ3146 + Pictilisib; first compound 0.8 µM) was 0.138, the relative viability (AZ3146 + Pictilisib; first compound 2.53 µM) was 0.146 and the relative viability (AZ3146 + Pictilisib; first compound 8 µM) was 0.191.

HCC-827 showed a relative viability (GSK-J4 + Olaparib; first compound 0.5 µM) of 0.622, a relative viability (GSK-J4 + Olaparib; first compound 1.581 µM) of 0.65 and a relative viability (GSK-J4 + Olaparib; first compound 5 µM) of 0.767. The relative viability (GSK-J4 + Olaparib; first compound 15.81 µM) was 0.589, the relative viability (GSK-J4 + Olaparib; first compound 50 µM) was 0.36 and the relative viability (GSK-J4 + Pemetrexed; first compound 0.5 µM) was 0.248. It also gave a relative viability (GSK-J4 + Pemetrexed; first compound 1.581 µM) of 0.26, a relative viability (GSK-J4 + Pemetrexed; first compound 5 µM) of 0.258 and a relative viability (GSK-J4 + Pemetrexed; first compound 15.81 µM) of 0.229. It also gave a relative viability (GSK-J4 + Pemetrexed; first compound 50 µM) of 0.285, a relative viability (AZ3146 + Vorinostat; first compound 0.08 µM) of 0.774 and a relative viability (AZ3146 + Vorinostat; first compound 0.253 µM) of 0.916. The relative viability (AZ3146 + Vorinostat; first compound 0.8 µM) was 0.641, the relative viability (AZ3146 + Vorinostat; first compound 2.53 µM) was 0.844 and the relative viability (AZ3146 + Vorinostat; first compound 8 µM) was 0.892. For the same cell line, the relative viability (AZ3146 + Pictilisib; first compound 0.08 µM) was 0.965, the relative viability (AZ3146 + Pictilisib; first compound 0.253 µM) was 0.971 and the relative viability (AZ3146 + Pictilisib; first compound 0.8 µM) was 0.987. The relative viability (AZ3146 + Pictilisib; first compound 2.53 µM) was 1.2 and the relative viability (AZ3146 + Pictilisib; first compound 8 µM) was 0.928.

HOP-62 showed a relative viability (GSK-J4 + Olaparib; first compound 0.5 µM) of 0.394, a relative viability (GSK-J4 + Olaparib; first compound 1.581 µM) of 0.333 and a relative viability (GSK-J4 + Olaparib; first compound 5 µM) of 0.426. For the same cell line, the relative viability (GSK-J4 + Olaparib; first compound 15.81 µM) was 0.491, the relative viability (GSK-J4 + Olaparib; first compound 50 µM) was 0.28 and the relative viability (GSK-J4 + Pemetrexed; first compound 0.5 µM) was 0.316. The relative viability (GSK-J4 + Pemetrexed; first compound 1.581 µM) was 0.3, the relative viability (GSK-J4 + Pemetrexed; first compound 5 µM) was 0.324 and the relative viability (GSK-J4 + Pemetrexed; first compound 15.81 µM) was 0.329. For the same cell line, the relative viability (GSK-J4 + Pemetrexed; first compound 50 µM) was 0.364, the relative viability (AZ3146 + Vorinostat; first compound 0.08 µM) was 0.337 and the relative viability (AZ3146 + Vorinostat; first compound 0.253 µM) was 0.664. It also gave a relative viability (AZ3146 + Vorinostat; first compound 0.8 µM) of 0.598, a relative viability (AZ3146 + Vorinostat; first compound 2.53 µM) of 0.699 and a relative viability (AZ3146 + Vorinostat; first compound 8 µM) of 0.385. The relative viability (AZ3146 + Pictilisib; first compound 0.08 µM) was 0.561, the relative viability (AZ3146 + Pictilisib; first compound 0.253 µM) was 0.719 and the relative viability (AZ3146 + Pictilisib; first compound 0.8 µM) was 0.627. For the same cell line, the relative viability (AZ3146 + Pictilisib; first compound 2.53 µM) was 0.895 and the relative viability (AZ3146 + Pictilisib; first compound 8 µM) was 0.548.

IA-LM showed a relative viability (GSK-J4 + Olaparib; first compound 0.5 µM) of 0.872, a relative viability (GSK-J4 + Olaparib; first compound 1.581 µM) of 0.9 and a relative viability (GSK-J4 + Olaparib; first compound 5 µM) of 0.874. The relative viability (GSK-J4 + Olaparib; first compound 15.81 µM) was 0.706, the relative viability (GSK-J4 + Olaparib; first compound 50 µM) was 0.169 and the relative viability (AZ3146 + Vorinostat; first compound 0.08 µM) was 0.674. For the same cell line, the relative viability (AZ3146 + Vorinostat; first compound 0.253 µM) was 0.872, the relative viability (AZ3146 + Vorinostat; first compound 0.8 µM) was 1.01 and the relative viability (AZ3146 + Vorinostat; first compound 2.53 µM) was 0.924. For the same cell line, the relative viability (AZ3146 + Vorinostat; first compound 8 µM) was 1.06, the relative viability (AZ3146 + Pictilisib; first compound 0.08 µM) was 0.306 and the relative viability (AZ3146 + Pictilisib; first compound 0.253 µM) was 0.425. The relative viability (AZ3146 + Pictilisib; first compound 0.8 µM) was 0.354, the relative viability (AZ3146 + Pictilisib; first compound 2.53 µM) was 0.381 and the relative viability (AZ3146 + Pictilisib; first compound 8 µM) was 0.225.

Cell Line LC-2-ad has a relative viability (GSK-J4 + Olaparib; first compound 0.5 µM) of 0.69, a relative viability (GSK-J4 + Olaparib; first compound 1.581 µM) of 0.643 and a relative viability (GSK-J4 + Olaparib; first compound 5 µM) of 0.672. For the same cell line, the relative viability (GSK-J4 + Olaparib; first compound 15.81 µM) was 0.701, the relative viability (GSK-J4 + Olaparib; first compound 50 µM) was 0.55 and the relative viability (GSK-J4 + Pemetrexed; first compound 0.5 µM) was 0.288. The relative viability (GSK-J4 + Pemetrexed; first compound 1.581 µM) was 0.281, the relative viability (GSK-J4 + Pemetrexed; first compound 5 µM) was 0.247 and the relative viability (GSK-J4 + Pemetrexed; first compound 15.81 µM) was 0.267. It also gave a relative viability (GSK-J4 + Pemetrexed; first compound 50 µM) of 0.272, a relative viability (AZ3146 + Vorinostat; first compound 0.08 µM) of 0.629 and a relative viability (AZ3146 + Vorinostat; first compound 0.253 µM) of 0.703. The relative viability (AZ3146 + Vorinostat; first compound 0.8 µM) was 0.69, the relative viability (AZ3146 + Vorinostat; first compound 2.53 µM) was 0.694 and the relative viability (AZ3146 + Vorinostat; first compound 8 µM) was 0.603. The relative viability (AZ3146 + Pictilisib; first compound 0.08 µM) was 0.398, the relative viability (AZ3146 + Pictilisib; first compound 0.253 µM) was 0.483 and the relative viability (AZ3146 + Pictilisib; first compound 0.8 µM) was 0.425. It also gave a relative viability (AZ3146 + Pictilisib; first compound 2.53 µM) of 0.579 and a relative viability (AZ3146 + Pictilisib; first compound 8 µM) of 0.41.

For LCLC-97TM1, the relative viability (GSK-J4 + Olaparib; first compound 0.5 µM) was 0.272, the relative viability (GSK-J4 + Olaparib; first compound 1.581 µM) was 0.373 and the relative viability (GSK-J4 + Olaparib; first compound 5 µM) was 0.364. The relative viability (GSK-J4 + Olaparib; first compound 15.81 µM) was 0.293, the relative viability (GSK-J4 + Olaparib; first compound 50 µM) was 0.196 and the relative viability (GSK-J4 + Pemetrexed; first compound 0.5 µM) was 0.15. It also gave a relative viability (GSK-J4 + Pemetrexed; first compound 1.581 µM) of 0.153, a relative viability (GSK-J4 + Pemetrexed; first compound 5 µM) of 0.198 and a relative viability (GSK-J4 + Pemetrexed; first compound 15.81 µM) of 0.148. It also gave a relative viability (GSK-J4 + Pemetrexed; first compound 50 µM) of 0.181, a relative viability (AZ3146 + Vorinostat; first compound 0.08 µM) of 0.356 and a relative viability (AZ3146 + Vorinostat; first compound 0.253 µM) of 0.761. It also gave a relative viability (AZ3146 + Vorinostat; first compound 0.8 µM) of 0.631, a relative viability (AZ3146 + Vorinostat; first compound 2.53 µM) of 0.635 and a relative viability (AZ3146 + Vorinostat; first compound 8 µM) of 0.653. It also gave a relative viability (AZ3146 + Pictilisib; first compound 0.8 µM) of 0.18, a relative viability (AZ3146 + Pictilisib; first compound 2.53 µM) of 0.227 and a relative viability (AZ3146 + Pictilisib; first compound 8 µM) of 0.181.

LCLC-103H was tested, and the relative viability (GSK-J4 + Olaparib; first compound 0.5 µM) was 0.8, the relative viability (GSK-J4 + Olaparib; first compound 1.581 µM) was 0.685 and the relative viability (GSK-J4 + Olaparib; first compound 5 µM) was 0.776. The relative viability (GSK-J4 + Olaparib; first compound 15.81 µM) was 0.654, the relative viability (GSK-J4 + Olaparib; first compound 50 µM) was 0.646 and the relative viability (GSK-J4 + Pemetrexed; first compound 0.5 µM) was 0.483. The relative viability (GSK-J4 + Pemetrexed; first compound 1.581 µM) was 0.374, the relative viability (GSK-J4 + Pemetrexed; first compound 5 µM) was 0.378 and the relative viability (GSK-J4 + Pemetrexed; first compound 15.81 µM) was 0.42. For the same cell line, the relative viability (GSK-J4 + Pemetrexed; first compound 50 µM) was 0.509, the relative viability (AZ3146 + Vorinostat; first compound 0.08 µM) was 0.51 and the relative viability (AZ3146 + Vorinostat; first compound 0.253 µM) was 0.726. For the same cell line, the relative viability (AZ3146 + Vorinostat; first compound 0.8 µM) was 0.78, the relative viability (AZ3146 + Vorinostat; first compound 2.53 µM) was 0.844 and the relative viability (AZ3146 + Vorinostat; first compound 8 µM) was 0.711. It also gave a relative viability (AZ3146 + Pictilisib; first compound 0.08 µM) of 0.548, a relative viability (AZ3146 + Pictilisib; first compound 0.253 µM) of 0.672 and a relative viability (AZ3146 + Pictilisib; first compound 0.8 µM) of 0.557. The relative viability (AZ3146 + Pictilisib; first compound 2.53 µM) was 0.492 and the relative viability (AZ3146 + Pictilisib; first compound 8 µM) was 0.555.

Work on LK-2 yielded a relative viability (GSK-J4 + Olaparib; first compound 0.5 µM) of 0.675, a relative viability (GSK-J4 + Olaparib; first compound 1.581 µM) of 0.628 and a relative viability (GSK-J4 + Olaparib; first compound 5 µM) of 0.98. The relative viability (GSK-J4 + Olaparib; first compound 15.81 µM) was 0.592, the relative viability (GSK-J4 + Olaparib; first compound 50 µM) was 0.364 and the relative viability (GSK-J4 + Pemetrexed; first compound 0.5 µM) was 0.281. It also gave a relative viability (GSK-J4 + Pemetrexed; first compound 1.581 µM) of 0.239, a relative viability (GSK-J4 + Pemetrexed; first compound 5 µM) of 0.329 and a relative viability (GSK-J4 + Pemetrexed; first compound 15.81 µM) of 0.226. It also gave a relative viability (GSK-J4 + Pemetrexed; first compound 50 µM) of 0.172, a relative viability (AZ3146 + Vorinostat; first compound 0.08 µM) of 0.159 and a relative viability (AZ3146 + Vorinostat; first compound 0.253 µM) of 0.243. For the same cell line, the relative viability (AZ3146 + Vorinostat; first compound 0.8 µM) was 0.326, the relative viability (AZ3146 + Vorinostat; first compound 2.53 µM) was 0.388 and the relative viability (AZ3146 + Vorinostat; first compound 8 µM) was 0.389. The relative viability (AZ3146 + Pictilisib; first compound 0.08 µM) was 0.49, the relative viability (AZ3146 + Pictilisib; first compound 2.53 µM) was 0.668 and the relative viability (AZ3146 + Pictilisib; first compound 8 µM) was 0.668.
